Holding throughout (format): cell-based, human
The test system of one assay is CD20. In words: Immunophenotyping (flow cytometry) of CD20 on CLL cells. As to the method: (§1) Immunophenotyping was performed to determine the percentage and mean fluorescence intensity of CD20, CD19, CD5, CD23, CD38, CD3, and CD52 on CLL cells relative to a specific isotype control. Cells (10^6) were washed in PBS, stained with fluorochrome-labeled antibodies at 4° C., then rinsed in PBS and analyzed by flow cytometry (EPICS-XL; Beckman Coulter, Fullerton, Calif.). A total of 10,000 events were collected and analyzed using Windows Multiple Document Interface for Flow Cytometry (WinMDI). CD20, CD19, CD3, CD5, CD23, and CD38 antibodies were obtained from BD Biosciences (San Jose, Calif.), and CD52 antibody was obtained from Serotec (Raleigh, N.C.).
All analyses were performed by the Center for Biostatistics, The Ohio State University. Mixed effects models were fitted to the cytotoxicity data. Random effects associated with the interactions were always included in the models to ensure that error was not underestimated. SPSS software, version 13.0 (SPSS, Chicago, Ill.) was used for the statistical analysis. Nonparametric paired Wilcoxon signed ranked tests were performed to examine both the proportion and mean fluorescence intensity change of cells expressing specific antigens after treatment with lenalidomide or media for 48 hours. A paired t test was used to evaluate whether there was a change in CD20 expression level between cells treated with lenalidomide and untreated control.
For orientation: Flow cytometry measures light scatter and fluorescence of single cells or particles in a stream.

The test system of a further assay is CD52. In words: Immunophenotyping (flow cytometry) of CD52 on CLL cells. The conditions noted are these: 0.5 μM, vs vehicle, data not shown. The method, then: as §1
Another assay concerns CD38. As to the kind of experiment: Immunophenotyping (flow cytometry) of CD38 on CLL cells. The conditions noted are these: 0.5 μM, 48 h, vs vehicle, n=6, P<0.05. As to the method:
as §1

The next assay concerns CD20 mRNA. As to the kind of experiment: Real-time RT-PCR of CD20 mRNA in CLL cells. The conditions noted are these: 24 and 48 hours, compared with vehicle control. The method, then:
RNA was extracted with TRIzol reagent (Invitrogen) according to the manufacturer's directions and converted to cDNA with the SuperScript First-Strand Synthesis System (Invitrogen). Real-time polymerase chain reaction was performed using custom-designed primers for CD20 (ID: Hs00544819_m1; Applied Biosystems, Foster City, Calif.) and an ABI Prism 7700 sequence detection system (Applied Biosystems). The expression of CD20 relative to an internal control gene was calculated by plotting the Ct (cycle number), and the average relative expression for each group was determined using the comparative method (2^−Ct).^24
The inventors herein then determined whether the mechanism by which lenalidomide down-regulates CD20 antigen was via decreased transcription. CD20 mRNA expression level was assessed by real-time reverse-transcribed polymerase chain reaction (RT-PCR) in lenalidomide- and vehicle-treated CLL cells at 24 and 48 hours.
On the technique in general: Quantitative PCR measures a nucleic acid by following its amplification.

The next assay has as its system CD19. As to the kind of experiment: Immunophenotyping (flow cytometry) of CD19 on CLL cells. The conditions noted are these: 0.5 μM, vs vehicle. As to the method:
as §1

For another assay, the system named is CLL cells. In words: ADCC, 4-hour 51Cr-release assay. As to the method:
For ADCC experiments, CD56^+ and CD19^+ cells were negatively purified from whole blood obtained from either healthy volunteers or CLL subjects by magnetic-activated cell sorting according to the manufacturer's recommendations (MiniMACS; Miltenyi Biotec, Auburn, Calif.). The purity of enriched populations was always greater than 95% of the total yield as detected by CD19 and CD3 staining.
ADCC activity was determined by standard 4-hour ^51Cr-release assay. ^51Cr-labeled target cells (10^5 CLL cells/mL) were incubated with media alone or in the presence of various antibodies (10 μg/mL) at 37° C. for 30 minutes. Unbound antibody was washed off and the cells plated at 10^4 cells/well. Effector cells (natural killer [NK] cells from healthy donors or CLL subjects) were then added to the plates at indicated effector-to-target (E:T) ratios. After a 4-hour incubation, supernatants were removed and measured using a gamma counter. The percentage of specific cell lysis was determined by the equation: % lysis=100×(ER−SR)/(MR−SR), where ER, SR, and MR represent experimental, spontaneous, and maximum release, respectively. Data were normalized to the untreated control.

For the next assay, the system named is CD5. In words: Immunophenotyping (flow cytometry) of CD5 on CLL cells. As to conditions: 0.5 μM, vs vehicle. As to the method:
as §1

The mark [1] stands for this setting: dose range 0.05-3 μM, evaluated at 24, 48 and 72 hours.

The source of these data is US20110280913A1, “Methods and Compositions for Delivering Therapeutic Agents in the Treatment of B-Cell Related Disorders” (THE OHIO STATE UNIVERSITY, priority 2008, published 2011).

On to `Nc1cccc2c1CN(C1CCC(=O)NC1=O)C2=O` (stereo not shown) [lenalidomide], for which, in the assay on CD20 (0.5 μM, 48 h, compared with vehicle-treated controls, n=18, P<0.001), the “reduction in the proportion of CD20-expressing cells” value is on record as “at least 40%”. The “reduction in relative mean fluorescence intensity of CD20-expressing cells” value in the assay with CD20 (0.5 μM, 48 h, compared with vehicle-treated controls, n=18, P=0.001) was “at least 40%”. Moreover, in the assay with CD20 (setting [1]), the “concentration of maximum effect on CD20 down-regulation” value worked out at 0.5 µM. In addition, the “time of maximum effect on CD20 down-regulation” value in the assay on CD20 (setting [1]) stood at 72 h. For the same compound, in the assay on CD52, the “CD52 expression on CLL cells” value is on record as “no changes”. Moreover, in the assay on CD38, the “CD38 activation marker level on CLL cells” value was “increased levels”. Also, the “CD20 mRNA transcription” value in the assay with CD20 mRNA is on record as “very modest increase”. Besides, in the assay on CD19, the “CD19 expression on CLL cells” value is given as “no changes”. Further, the “rituximab-mediated ADCC” value is “diminished” in the assay on CLL cells (cotreatment of autologous NK cells and primary CLL cells, 0.5 μM, 72 hours, vs NK-only controls, N=2, P=0.02); “decrease” with CLL cells (lenalidomide-pretreated CLL B cells, allogeneic NK cells, N=5, P<0.05); “decrease” in the assay on CLL cells (lenalidomide-pretreated CLL B cells, autologous NK cells, N=2, P<0.05). Besides, the “rituximab-mediated ADCC against target CLL subject cells” value in the assay with CLL cells (lenalidomide-treated NK cells from a healthy donor, N=4, P=0.009) is listed as “overall enhancement”. Further, the “CD5 expression on CLL cells” value with CD5 is “no changes”.
